Data on 47 compounds can be found in ChEMBL document CHEMBL3045843, “Binding of Nicotinoids and the Related Compounds to the Insect Nicotinic Acetyicholine Receptor” (J Pestic Sci, 1992).

Series [1] is described as follows: Displacement of [3H]alpha-bungarotoxin from nAChR in honeybee head membrane after 60 min by scintillation counting. The series is classed as cell membranes, Apis mellifera.
The target in series [2] is T1, Nicotinic acetylcholine receptor alpha 5 subunit (Musca domestica, UniProt A9XFY4).
T1 sequence (A9XFY4 whole entry): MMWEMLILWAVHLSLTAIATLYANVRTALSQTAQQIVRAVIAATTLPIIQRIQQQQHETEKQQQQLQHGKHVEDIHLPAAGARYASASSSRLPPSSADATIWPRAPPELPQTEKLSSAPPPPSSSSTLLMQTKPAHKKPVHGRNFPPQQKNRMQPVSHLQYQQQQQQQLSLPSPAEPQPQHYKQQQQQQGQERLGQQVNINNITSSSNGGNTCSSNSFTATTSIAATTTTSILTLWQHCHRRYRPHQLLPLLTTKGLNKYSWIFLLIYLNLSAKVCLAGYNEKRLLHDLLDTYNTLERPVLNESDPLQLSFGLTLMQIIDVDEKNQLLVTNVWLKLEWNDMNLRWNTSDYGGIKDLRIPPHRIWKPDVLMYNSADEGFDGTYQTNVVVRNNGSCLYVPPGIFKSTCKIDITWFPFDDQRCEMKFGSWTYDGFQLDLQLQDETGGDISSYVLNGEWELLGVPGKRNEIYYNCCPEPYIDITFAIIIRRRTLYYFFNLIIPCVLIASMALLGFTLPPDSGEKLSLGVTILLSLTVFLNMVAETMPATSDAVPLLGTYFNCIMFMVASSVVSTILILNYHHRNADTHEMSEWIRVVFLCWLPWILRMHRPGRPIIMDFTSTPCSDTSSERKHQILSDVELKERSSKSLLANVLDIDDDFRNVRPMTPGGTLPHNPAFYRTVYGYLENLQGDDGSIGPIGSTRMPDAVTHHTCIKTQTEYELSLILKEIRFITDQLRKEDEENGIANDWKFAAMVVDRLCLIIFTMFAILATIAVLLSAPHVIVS
As to the kind of experiment: Displacement of [3H]alpha-bungarotoxin from nAChR in Musca domestica (house fly) head membrane after 60 min by scintillation counting. A general note: In a radioligand displacement assay an active substance lowers the binding of a labelled ligand.

Series [3] is described as follows: Disocciation constant, pKa of the compound at 37 degC. It counts as physicochemical.
The target of the next series is Acetylcholinesterase (Musca domestica, UniProt Q7YWJ9). The series is described as follows: Inhibition of Musca domestica (house fly) acetylcholinesterase.
In another series the test system is Musca domestica. The series is described as follows: Insecticidal activity against Musca domestica (house fly) assessed as mortality relative to nicotine. The series is classed as functional.
The nature of series [4]: Disocciation constant, pKa of the compound at 25 degC. The series is classed as physicochemical.

SMILES strings stand for the structures.

For orientation: Ki means the dissociation constant of the complex between target and ligand, obtained from inhibition or displacement. A lower Ki goes with a stronger hold on the target. A word on the pKa: it is the pH at which an ionisable group is half protonated. The term IC50 denotes the concentration at which inhibition is half-maximal. Read a low IC50 as inhibition by little substance.

Chain of Acetylcholinesterase (Q7YWJ9 whole entry): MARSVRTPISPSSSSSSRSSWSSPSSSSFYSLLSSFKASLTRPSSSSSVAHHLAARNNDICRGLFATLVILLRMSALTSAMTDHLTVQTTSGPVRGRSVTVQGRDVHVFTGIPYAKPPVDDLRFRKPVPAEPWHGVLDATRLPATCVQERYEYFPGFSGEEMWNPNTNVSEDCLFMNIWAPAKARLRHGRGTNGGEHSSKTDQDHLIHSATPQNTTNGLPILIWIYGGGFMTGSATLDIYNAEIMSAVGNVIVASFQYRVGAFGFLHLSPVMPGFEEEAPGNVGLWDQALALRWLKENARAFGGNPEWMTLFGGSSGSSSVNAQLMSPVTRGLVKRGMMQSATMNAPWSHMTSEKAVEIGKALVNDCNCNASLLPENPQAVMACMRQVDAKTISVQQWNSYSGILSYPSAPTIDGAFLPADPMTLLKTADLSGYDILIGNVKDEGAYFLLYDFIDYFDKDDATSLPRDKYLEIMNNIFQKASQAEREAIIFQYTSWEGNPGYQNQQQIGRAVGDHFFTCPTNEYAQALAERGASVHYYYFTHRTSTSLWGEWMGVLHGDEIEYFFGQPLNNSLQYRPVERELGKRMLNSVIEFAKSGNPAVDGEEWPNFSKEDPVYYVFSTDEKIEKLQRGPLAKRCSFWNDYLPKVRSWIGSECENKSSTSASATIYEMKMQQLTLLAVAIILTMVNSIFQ

Turning to `CN(C)Cc1ccncc1`, the Ki in series [1] and in series [2] was > 1000 µM in each case.
For the compound `CCN(CC)Cc1ccccn1`, the pKa in series [3] came to 8.42. The compound further gave an IC50 against Acetylcholinesterase of 3000 µM. Also, in the series on Musca domestica, the “fold change (FC)” value was determined as 0.1.
The matching figures for `CCN(CC)Cc1ccncc1`: 7.96, 7700 µM and 0.1.
With `CN(C)Cc1ccccn1`, the Ki in series [1] and in series [2] was > 1000 µM each time.
With `CCNCc1cccnc1`, the pKa in series [3] came out at 8.96. Besides, the Ki turned out to be 289 µM in series [1] and 380 µM in series [2]. On Acetylcholinesterase, this compound yielded an IC50 of 7100 µM. In addition, the “fold change (FC)” value with Musca domestica was found to be 0.34.
The matching figures for `CCCNCc1cccnc1`: 8.38, > 1000 µM, > 1000 µM, 17000 µM and 0.15.
The corresponding values for `CC(C)NCc1cccnc1` are 8.46, 103 µM, 226 µM, 3900 µM and 0.46.
The matching figures for `CCCCNCc1cccnc1`: 8.66, 406 µM, > 1000 µM, 23000 µM and 0.16.
In the case of `CCN(CC)Cc1cccnc1`, in series [3], the pKa amounted to 8.12. For the same compound, the figures for the inhibition constant (Ki) in series [1] and in series [2] were 155 µM and 450 µM, respectively. Half-maximal inhibition against Acetylcholinesterase (IC50) was put at 890 µM. Moreover, the “fold change (FC)” value in the series on Musca domestica was 0.46.
On to `CCCN(CCC)Cc1cccnc1`, for which the pKa in series [3] was 8.13. Moreover, the Ki stood at 200 µM in series [1] and 220 µM in series [2]. Moreover, the IC50 against Acetylcholinesterase was determined as 1700 µM. In addition, the “fold change (FC)” value in the series on Musca domestica came out at 0.16.
The matching figures for `CCCCN(CCCC)Cc1cccnc1`: 8.08, 175 µM, > 1000 µM, 2800 µM and 0.28.
For the compound `c1cncc(CN2CCCCC2)c1`, the pKa in series [3] amounted to 8.16. In addition, the Ki in series [1] worked out at 48.7 µM; in series [2], 67.6 µM. On Acetylcholinesterase, this compound registered an IC50 of 1500 µM. Also, in the series on Musca domestica, the “fold change (FC)” value was 0.79.
On to `c1cncc(CN2CCOCC2)c1`, for which the pKa in series [3] was 5.76. For the same compound, the Ki in series [1] and in series [2] was > 1000 µM each time. In addition, in the series with Musca domestica, the “fold change (FC)” value was 0.04.
On to `CCOc1ccccc1Cn1nc(OC)oc1=O`, for which the Ki in series [1] and in series [2] was > 100 µM throughout.
As for `COc1nn(-c2ccc(C)cc2OC)c(=O)o1`, the Ki in series [1] and in series [2] was > 1000 µM each time.
Turning to `N#C/N=C1/NCCN1/C=N/c1ccccc1`, the Ki in series [1] and in series [2] was > 500 µM in each case.
With `O=[N+]([O-])C(/C=N/c1ccccc1)=C1NCCN1`, the Ki in series [1] and in series [2] was > 500 µM in each case.
Compound `CN(C)Cc1cccnc1` had a pKa in series [3] of 7.76. Besides, the Ki was 208 µM in series [1] and 201 µM in series [2]. Also, half-maximal inhibition against Acetylcholinesterase (IC50) was put at 5100 µM. Also, in the series on Musca domestica, the “fold change (FC)” value was 0.45.
The matching figures for `CNCc1cccnc1`: 8.3, 377 µM, 600 µM, 31000 µM and 0.3.
As for `c1cncc(C2CCCCN2)c1` (racemic) [DL-ANABASINE], the “fold change (FC)” value in the series with Musca domestica was found to be 0.6.
As to `CN1CCC[C@H]1c1cccnc1` (racemic) [NICOTINE], the IC50 against Acetylcholinesterase was 620 µM. Also, the “fold change (FC)” value in the series with Musca domestica was found to be 1.
Turning to `c1cncc([C@@H]2CCCN2)c1` (racemic) [NORNICOTINE], the Ki in series [1] was 7.61 µM; in series [2], 8.77 µM. In addition, half-maximal inhibition against Acetylcholinesterase (IC50) was put at 9700 µM. Further, the “fold change (FC)” value in the series with Musca domestica is listed as 0.3.
For `O=[N+]([O-])C=C1NCCN1` [2-(NITROMETHYLENE)IMIDAZOLIDINE], the Ki in series [1] and in series [2] was > 1000 µM in each case.
With `c1cncc([C@@H]2CCCCN2)c1` [ANABASINE], the pKa came to 8.48 in series [3] and 8.7 in series [4].
Consider `COC(=O)C1=CCCN(C)C1` [ARECOLINE], for which the results for the Ki in series [1] and in series [2] were 240 µM and 516 µM, respectively.
Take `CN1[C@@H]2CC[C@H]1C[C@@H](OC(=O)C(CO)c1ccccc1)C2` (stereo partly drawn) [ATROPINE]: the values for the Ki in series [1] and in series [2] were 26.3 µM and 32.5 µM, respectively.
For the compound `C[N+](C)(C)CCOC(N)=O` [CARBACHOL], the Ki in series [1] worked out at 175 µM; in series [2] it was 212 µM.
The corresponding values for `CCC[C@H]1CCCCN1` [CONIINE] are 262 µM and > 1000 µM.
`CN1C(=O)CC[C@H]1c1cccnc1` [COTININE]: the Ki in series [1] and in series [2] was > 1000 µM each time. In series [4], this compound came in with a pKa of 4.5. For the same compound, in the series with Musca domestica, the “fold change (FC)” value was 0.03.
As for `O=c1cccc2n1C[C@@H]1CNC[C@H]2C1` [CYTISINICLINE], the Ki was determined as 0.65 µM in series [1] and 1.23 µM in series [2].
The matching figures for `C[N+](C)(C)CCCCCCCCCC[N+](C)(C)C` [DECAMETHONIUM]: 224 µM and 103 µM.
On to `C1=C(c2cccnc2)NCC1` [DIHYDRONICOTYRINE], for which the pKa worked out at 7.21 in series [3] and 7.4 in series [4]. The results for the Ki in series [1] and in series [2] were 1.27 µM and 1.92 µM, respectively. On Acetylcholinesterase, this compound came in with an IC50 of 350 µM. Also, the “fold change (FC)” value with Musca domestica is 2.6.
In the case of `C[N+]1(C)CCN(c2ccccc2)CC1` [DIMETHYLPHENYLPIPERAZINIUM], the Ki came to 49.5 µM in series [1] and 86.3 µM in series [2].
As for `c1cncc(C2CCCCN2)c1` (stereo not drawn) [DL-ANABASINE], the Ki in series [1] was 3.91 µM; in series [2] it was 3.71 µM. Besides, the IC50 on Acetylcholinesterase is 3900 µM.
`O=[N+]([O-])/N=C1\NCCN1Cc1ccc(Cl)nc1` [IMIDACLOPRID]: the Ki in series [1] worked out at 2.53 µM; in series [2] it was 7.47 µM.
With `CN1[C@@H](CC(=O)c2ccccc2)CCC[C@H]1C[C@H](O)c1ccccc1` [LOBELINE], the values for the Ki in series [1] and in series [2] were 9.13 µM and 12.8 µM, respectively.
Turning to `CNC1(C)C2CCC(C2)C1(C)C` (stereo not drawn) [MECAMYLAMINE], the Ki in series [1] was 453 µM; in series [2] it was > 1000 µM.
As to `c1cncc(C2=NCCC2)c1` [MYOSMINE], the pKa stood at 5.23 in series [3] and 5.5 in series [4]. For the same compound, the Ki in series [1] and in series [2] was > 1000 µM in each case. On Acetylcholinesterase, this compound registered an IC50 of 6800 µM. Also, in the series with Musca domestica, the “fold change (FC)” value was found to be 0.36.
Turning to `c1cncc(CN2CCCC2)c1` [N-(3-PYRIDYLMETHYL)PYRROLIDINE], the pKa in series [3] came to 8.11. For the same compound, the Ki came to 14.3 µM in series [1] and 16.4 µM in series [2]. The same compound came in with an IC50 on Acetylcholinesterase of 1400 µM. The “fold change (FC)” value in the series with Musca domestica stood at 0.43.
For `CN(C)C1CSSC1` [NEREISTOXIN], the Ki was found to be 254 µM in series [1] and 187 µM in series [2].
Take `CN1CCC[C@H]1c1cccnc1` [NICOTINE]: the pKa in series [3] came out at 7.66; in series [4], 7.9. In addition, the figures for the Ki in series [1] and in series [2] were 1.48 µM and 2.48 µM, respectively. For the same compound, the IC50 against Acetylcholinesterase worked out at 2600 µM.
Turning to `Cn1cccc1-c1cccnc1` [NICOTYRINE], the pKa in series [3] came out at 4.5; in series [4], 4.7. The Ki in series [1] and in series [2] was > 1000 µM in each case. Further, at Acetylcholinesterase, the IC50 was 2300 µM. Further, the “fold change (FC)” value with Musca domestica worked out at 0.18.
With `c1cncc([C@@H]2CCCN2)c1` [NORNICOTINE], the pKa worked out at 8.76 in series [3] and 9 in series [4]. Further, half-maximal inhibition on Acetylcholinesterase (IC50) required 4200 µM.
As to `C[N+]1(CCCCC[N+]2(C)CCCC2)CCCC1` [PENTOLINIUM], the Ki in series [1] was 72.2 µM; in series [2], 108 µM.
Turning to `CN1CCC[C@@H]1c1cccnc1` [R-NICOTINE], the Ki stood at 43.7 µM in series [1] and 59.9 µM in series [2]. On Acetylcholinesterase, this compound returned an IC50 of 230 µM. In addition, in the series on Musca domestica, the “fold change (FC)” value came out at 1.
In the case of `O=C1N(Cc2ccccc2)C2C[S+]3CCCC3C2N1Cc1ccccc1` (stereo not drawn) [TRIMETHAPHAN], the values for the Ki in series [1] and in series [2] were 5.79 µM and 2.75 µM, respectively.
For the compound `COc1cc2c3cc1Oc1cc(ccc1O)C[C@@H]1c4c(cc(OC)c(O)c4Oc4ccc(cc4)C[C@@H]3N(C)CC2)CC[N+]1(C)C` [TUBOCURARINE], the Ki worked out at 3.57 µM in series [1] and 1.88 µM in series [2].
